# Source: US12391696B2, “Pyrrolopyrazole derivatives, preparation method thereof and application thereof in medicine” (SHANGHAI MEDICILON INC., priority 2019, dated 2025)
# Molecular target: H+/K+ ATPase (Oryctolagus cuniculus (Rabbit), UniProt P27112)
# Experiment: Determination of compounds' inhibition of H+/K+ ATPase enzyme activity
# Type: biochemical
# Conditions: H+/K+ ATPase extracted from rabbit stomach; malachite green detection, 500 μM ATP, pH 6.5
# Description: Determination of Compounds' Inhibition of H^+/K^+ ATPase Enzyme Activity
# The following experiment is used to determine the inhibitory effect of the compound of the present invention on the H+/K+ATPase enzyme activity.
# • Plate reader: SpectraMax M5(MD) • Malachite Green (Sigma Aldrich, 213020-25G) • Ammonium molybdate (Sigma Aldrich, 277908-20G) • ATP (Sigma Aldrich, A1852-1VL). 2. Buffer Preparation
# Enzyme working solution: titrating the enzyme, diluting the enzyme with buffer 1, and during the reaction, taking 5 μl of the diluted solution into 50 μl reaction system.
# ATP solution: 100 mM ATP was diluted to 5 mM with no K+buffer, and 5 μl of the diluted solution was added to the 50 μl reaction system, that is, the final concentration of ATP was 500 μM.
# MLG color development liquid: 0.12% MLG, 7.5% ammonium molybdate, 11% Tween-20 was mixed as 100:25:2, and adding 15 μl of the mixture into each well during detection.
# Buffer 1: 50 mM Tris-HCl pH 6.5, 5 mM magnesium chloride (magnesium chloride), 10 μM valinomycin (valinomycin).
# Buffer 2: 50 mM Tris-HCl pH 6.5, 5 mM magnesium chloride (magnesium chloride), 10 μM valinomycin (valinomycin), 20 mM KCl.
# Homogenization buffer: 10 mmol/L Tris-HCl, pH 6.8, 0.25M sucrose (sucrose), 1 mmol/LEDTA
# 7.5% Ficoll layering solution: homogenization buffer+7.5% (W/W) (Ficoll 400).
# 3.1. H^+/K^+ ATPase Enzyme Extraction
# (1) The stomach tissue of the rabbit was separated, and the blood was washed with tap water, food residue.
# (2) The fundus portion was thoroughly washed with pre-cooled NaCl solution to remove surface mucus.
# (3) The stripped mucosa was filled into a sample bag or a 50 ml centrifuge tube, and quickly freezing in a liquid nitrogen tank.
# (4) The tissue was removed, minced with surgical scissors, and a pre-cooled homogenization buffer (4 ml/g tissue) was added and homogenized in a tissue homogenizer for 2 to 10 minutes.
# (5) After homogenization, if there were larger tissue particles, they could be removed by centrifugation (600 g, 10 min), and then the supernatant was transferred to a clean centrifuge tube. After centrifugation at 20000 g for 30 minutes, then the supernatant was transferred to a clean centrifuge tube at 100000 g for 90 minutes and the precipitate was collected.
# (6) Resuspending the precipitate with homogenization buffer, blowing uniformly, adding 7.5% Ficoll layering solution at equal ratio, centrifuging at 100000 g for 90 minutes, and collecting the precipitate.
# (7) Resuspending the precipitate with homogenization buffer, blowing uniformly, and the protein concentration was measured by Bradford. Freezing in tubes at −80° C. for later use.
# 3.2. H^+/K^+ ATPase Activity Experiment
# (1) Adding 35 μl of reaction buffer to each experimental well, and then added 35 μl of buffer 1.
# (2) Adding 5 μl buffer 1 containing 10% DMSO to the whole enzyme and buffer well.
# (3) Adding 5 μl of 10× compound working solution to the compound well and mixing well.
# (4) Adding 5 μl of buffer 1 to the buffer well.
# (5) Adding 5 μl of 10× enzyme working solution to the remaining wells, mixing and incubating at 37° C. for 30 minutes
# (6) Adding 5 μl of 10× ATP working solution to all experimental wells, and incubating at 37° C. for 20 min.
# (7) Adding 15 μl MLG chromogenic solution to all experimental wells, and uniformly mixing and incubating at room temperature for 5-30 min.
# (8) The reading number of 620 nm was detected by an M5 instrument. […]
# Chain of H+/K+ ATPase (P27112 whole entry): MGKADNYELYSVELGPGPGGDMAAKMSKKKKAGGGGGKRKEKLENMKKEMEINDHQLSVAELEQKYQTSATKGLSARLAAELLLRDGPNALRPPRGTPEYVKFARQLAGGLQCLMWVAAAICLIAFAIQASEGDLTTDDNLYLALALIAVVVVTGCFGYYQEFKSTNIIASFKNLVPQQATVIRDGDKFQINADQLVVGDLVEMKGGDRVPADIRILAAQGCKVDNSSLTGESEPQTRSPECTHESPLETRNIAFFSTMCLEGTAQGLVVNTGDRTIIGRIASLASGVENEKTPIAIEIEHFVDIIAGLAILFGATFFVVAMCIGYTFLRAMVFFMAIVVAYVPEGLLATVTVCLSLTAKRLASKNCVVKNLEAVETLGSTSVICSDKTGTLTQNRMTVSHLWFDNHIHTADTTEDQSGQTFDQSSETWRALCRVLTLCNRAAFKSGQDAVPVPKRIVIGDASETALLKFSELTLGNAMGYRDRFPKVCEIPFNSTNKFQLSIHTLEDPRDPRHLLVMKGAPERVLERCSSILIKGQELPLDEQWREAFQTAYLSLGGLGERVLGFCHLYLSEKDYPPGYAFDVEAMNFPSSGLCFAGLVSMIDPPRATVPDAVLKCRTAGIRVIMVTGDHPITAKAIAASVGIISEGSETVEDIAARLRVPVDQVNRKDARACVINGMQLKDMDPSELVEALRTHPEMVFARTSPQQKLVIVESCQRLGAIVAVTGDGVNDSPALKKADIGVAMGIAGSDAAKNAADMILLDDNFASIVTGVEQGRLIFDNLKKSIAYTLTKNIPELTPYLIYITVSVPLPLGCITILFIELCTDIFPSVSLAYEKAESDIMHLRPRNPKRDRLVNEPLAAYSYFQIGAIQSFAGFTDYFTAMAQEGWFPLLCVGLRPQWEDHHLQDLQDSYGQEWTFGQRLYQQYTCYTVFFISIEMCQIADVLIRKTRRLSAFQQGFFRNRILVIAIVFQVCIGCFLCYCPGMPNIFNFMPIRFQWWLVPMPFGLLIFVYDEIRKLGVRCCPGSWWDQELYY
# Chain of H+/K+ ATPase (P18597 whole entry partner): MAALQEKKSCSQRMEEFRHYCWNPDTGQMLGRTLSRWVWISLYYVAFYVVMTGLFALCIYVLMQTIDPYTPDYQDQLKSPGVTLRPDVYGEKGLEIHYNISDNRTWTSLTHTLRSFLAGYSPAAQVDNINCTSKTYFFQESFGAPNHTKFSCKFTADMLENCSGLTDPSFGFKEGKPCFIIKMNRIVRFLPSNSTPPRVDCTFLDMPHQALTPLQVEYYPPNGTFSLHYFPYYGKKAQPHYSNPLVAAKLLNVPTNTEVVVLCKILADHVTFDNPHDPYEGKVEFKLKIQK
row,SMILES,IC50 [nM]
1,"CN1Cc2nn(Cc3cccc(N4CCCCC4)c3)c(-c3ccccc3F)c2C1 [Example 2, 3-(2-fluorophenyl)-5-methyl-2-(3-(piperidin-1-yl)benzyl)-2,4,5,6-tetrahydropyrrolo[3,4-c]pyrazole]",431
2,"CN1Cc2nn(Cc3cccc(N4CCCC4)c3)c(-c3ccccc3F)c2C1 [Example 3, 3-(2-fluorophenyl)-5-methyl-2-(3-(pyrrolidin-1-yl)benzyl)-2,4,5,6-tetrahydropyrrolo[3,4-c]pyrazole]",1860
3,"CN1Cc2nn(Cc3cccc(N4CCOCC4)c3)c(-c3ccccc3F)c2C1 [Example 1, 4-(3-((3-(2-fluorophenyl)-5-methyl-5,6-dihydropyrrolo [3,4-c]pyrazole-2(4H)-yl)methyl)phenyl) morpholine]",410

# More lines, now with the values ahead:
row,IC50 [nM],SMILES
1,2580,"CN1Cc2nn(Cc3cccc(N4CCC(N5CCCCC5)CC4)c3)c(-c3ccccc3F)c2C1 [Example 5, 2-(3-([1,4′-Bipiperidine]-1′-yl)benzyl)-3-(2-fluorophenyl)-5-methyl-2,4,5,6-tetrahydropyrrolo[3,4-c]pyrazole]"
2,580,"CN1CCN(c2cccc(Cn3nc4c(c3-c3ccccc3F)CN(C)C4)c2)CC1 [Example 4, 3-(2-fluorophenyl)-5-methyl-2-(3-(4-methylpiperazin-1-yl)benzyl)-2,4,5,6-tetrahydro pyrrolo [3,4-c] pyrazole]"
